Here are results for 1 molecule from US9714235B2, “Quinazoline derivatives, compositions thereof, and use as pharmaceuticals” (Shanghai Fochon Pharmaceutical Co., Ltd., priority 2013, dated 2017).

For one experiment, the system named is NCI-N87 tumor cells. As to the kind of experiment: N87 tumor in vivo study. Also noted: species or system Female BALB/cA-nude mice. The settings on record: for Average Tumor Volume Day 21 / Inhibition rate / T/C: Day 21; for Average Tumor Volume Day 0: Day 0 (baseline). How it is done:
Female BALB/cA-nude mice were implanted with NCI-N87 tumor cells. Tumor measurements were recorded twice a week. Randomize animals to groups (Day 0) when tumors reached an average size of 60-150 mm^3. Group size was 6 mice. Test compound was administered p.o. once daily for 21 days. Tumor inhibition values were determined at Day 21.
Tumor volume (V) was calculated as follow: V=½×a×b, where a and b are the length and width of the tumor respectively. Relative tumor proliferation rate was calculated as follow: T/C (%)=(T−T0)/(C−C0)×100, where T and C are the tumor volume of test compound group and control group on Day 21, T0 and C0 are the tumor volume of test compound group and control group on Day 0.

In experiment [1] the test system is N87 (EGFR and ErbB2 overexpression) cells. As to the kind of experiment: Cell proliferation assay (MTS), N87. It counts as cell-based. The settings on record: 72 h incubation. As to the method:
(§1) Cell Proliferation Asssay
(§2) Materials and Preparation of Reagents
(§3) MTS testing kit was purchased from Promega. […] Dimethyl sulfoxide (DMSO) was purchased from Sigma.
(§4) Inhibition Activity of Cell Proliferation
(§5) In this assay, inhibition of EGFR and ErbB2 was detected by the inhibition of BT474 and N87 cells proliferation. BT474 cells were cultured in culture flasks to 40-80% confluence in DMEM plus 10% fetal bovine serum. […] Cells were collected and plated onto 96-well plates at desired cell density (BT474: 1000 cells/well; N87: 1000 cells/well). BT474 plates were incubated 48 h at 37° C., with 5% CO2 to adhere. N87 plates were incubated overnight at 37° C., with 5% CO2 to adhere. […] Place BT474 plates at 37° C., with 5% CO2 for 7d. Place N87 plates at 37° C., with 5% CO2 for 72 h. After removing the medium, 20 μl MTS/100 μl medium mixture solution were added to each well and incubate the plates for exactly 2 hours. Measure absorbance at 490 nm and 650 nm (reference wavelength). IC50 was calculated using GraphPad Prism 5.0.

Experiment [2] relates to BT474 (EGFR overexpression) cells. As to the kind of experiment: Cell proliferation assay (MTS), BT474. It counts as cell-based. Conditions: Homo sapiens, BT-474, 168 h, 7 d incubation. As to the method: as §1, §2, §3, §4, §5
Setting [3] is: 2 mg/kg p.o. once daily for 21 days.
The mark [4] stands for this setting: 5 mg/kg p.o. once daily for 21 days.

Regarding `COC[C@H]1CCN1C/C=C/C(=O)Nc1cc2c(Nc3ccc(F)c(Cl)c3)ncnc2cc1OC` [Example 2, (R,E)-N-(4-(3-chloro-4-fluorophenylamino)-7-methoxyquinazolin-6-yl)-4-(2-(methoxymethyl)azetidin-1-yl)but-2-enamide], the “Average Tumor Volume Day 21” value in the experiment on NCI-N87 tumor cells (setting [3]) stood at 584.4 ± 71.3 mm^3; in the experiment with NCI-N87 tumor cells (setting [4]), 54.3 ± 3.8 mm^3. In addition, the Inhibition rate with NCI-N87 tumor cells (setting [3]) turned out to be 61%; in the experiment on NCI-N87 tumor cells (setting [4]) it was 154%. Further, the figures for the T/C in the experiment on NCI-N87 tumor cells (setting [3]) and in the experiment with NCI-N87 tumor cells (setting [4]) were 39% and −54%, respectively. For the same molecule, the “Average Tumor Volume Day 0” value with NCI-N87 tumor cells (2 mg/kg p.o. once daily) was found to be 113.3 ± 4.4 mm^3; with NCI-N87 tumor cells (5 mg/kg p.o. once daily), 117.6 ± 7.2 mm^3. The IC50 in experiment [1] and in experiment [2] was 1.6 nM throughout.
